Test results: PubChem BioAssay AID248 (DTP/NCI, 2004)
“And” between values parts separate entries of the source, which are not always exact repeats. Equal values may be shown once. Inconclusive results and toxic doses are left out. Cut-off read from the data, not from the text of the source: active = T/C of 150% or more; inactive = T/C below 125%.

Tested on: L1210 leukemia ip in BDF1 mice, survival T/C
Assay: NCI In Vivo Anticancer Drug Screen. Data for tumor model L1210 Leukemia (intraperitoneal) in B6D2F1 (BDF1) mice
Details: endpoint: mean survival time, higher = longer survival
Method in brief: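 Read-out is survival time, reported as the treated-group measurement over the vehicle-control measurement.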

[1] = dose: 100.0 mg/kg/injection, schedule: Q01DX001 (ip), vehicle: saline
[2] = dose: 200.0 mg/kg/injection, schedule: Q01DX001 (ip), vehicle: saline
[3] = dose: 400.0 mg/kg/injection, schedule: Q01DX001 (ip), vehicle: saline
[4] = dose: 100.0 mg/kg/injection, schedule: Q04DX003 (ip), vehicle: saline with Tween-80
[5] = dose: 200.0 mg/kg/injection, schedule: Q04DX003 (ip), vehicle: saline with Tween-80
[6] = dose: 400.0 mg/kg/injection, schedule: Q04DX003 (ip), vehicle: saline with Tween-80
[7] = dose: 50.0 mg/kg/injection, schedule: Q01DX001 (ip), vehicle: carboxymethylcellulose (CMC)
[8] = dose: 100.0 mg/kg/injection, schedule: Q01DX001 (ip), vehicle: carboxymethylcellulose (CMC)
[9] = dose: 200.0 mg/kg/injection, schedule: Q01DX001 (ip), vehicle: carboxymethylcellulose (CMC)
[10] = dose: 400.0 mg/kg/injection, schedule: Q01DX001 (ip), vehicle: carboxymethylcellulose (CMC)

Measured: T/C

OCCSc1ncc2cnccn12
inactive: dose: 100.0 mg/kg/injection, schedule: Q01DX009 (ip), vehicle: water 98 % of control | dose: 100.0 mg/kg/injection, schedule: Q04DX003 (ip), vehicle: water 101 % of control | dose: 200.0 mg/kg/injection, schedule: Q01DX009 (ip), vehicle: water 96 % of control | dose: 200.0 mg/kg/injection, schedule: Q04DX003 (ip), vehicle: water 93 % of control | dose: 400.0 mg/kg/injection, schedule: Q01DX009 (ip), vehicle: water 102 % of control | dose: 400.0 mg/kg/injection, schedule: Q04DX003 (ip), vehicle: water 95 % of control

Clc1ccc(/C=N/Nc2c3ccccc3nc3ccccc23)c(Cl)c1
inactive: [1] 92 % of control | [2] 97 % of control | [3] 100 % of control

O=C(N/N=C\c1ccccc1Cl)C(=O)N/N=C\c1ccccc1Cl
inactive: [4] 94 % of control | [5] 94 % of control | [6] 88 % of control

COc1cc2c(c(OC)c1OC)-c1ccc(SCc3ccccc3)c(=O)cc1[C@@H](NC(C)=O)CC2
inactive: dose: 6.25 mg/kg/injection, schedule: Q01DX009 (ip), vehicle: Klucel (hydroxypropylcellulose) (HPC) 106 % of control | dose: 8.2 mg/kg/injection, schedule: Q01DX009 (ip), vehicle: Klucel (hydroxypropylcellulose) (HPC) 121 % of control | dose: 12.5 mg/kg/injection, schedule: Q01DX009 (ip), vehicle: Klucel (hydroxypropylcellulose) (HPC) 124 % of control | dose: 18.0 mg/kg/injection, schedule: Q01DX009 (ip), vehicle: Klucel (hydroxypropylcellulose) (HPC) 101 % of control | dose: 25.0 mg/kg/injection, schedule: Q01DX009 (ip), vehicle: Klucel (hydroxypropylcellulose) (HPC) 115 % of control and 92 % of control

CCC1(O)C(=O)OCc2c1cc(C)[nH]c2=O (configuration not stated)
inactive: dose: 6.25 mg/kg/injection, schedule: Q04DX003 (ip), vehicle: Klucel (hydroxypropylcellulose) (HPC) 86 % of control | dose: 12.5 mg/kg/injection, schedule: Q04DX003 (ip), vehicle: Klucel (hydroxypropylcellulose) (HPC) 94 % of control | dose: 25.0 mg/kg/injection, schedule: Q04DX003 (ip), vehicle: Klucel (hydroxypropylcellulose) (HPC) 86 % of control | dose: 50.0 mg/kg/injection, schedule: Q04DX003 (ip), vehicle: Klucel (hydroxypropylcellulose) (HPC) 89 % of control | dose: 100.0 mg/kg/injection, schedule: Q04DX003 (ip), vehicle: Klucel (hydroxypropylcellulose) (HPC) 91 % of control | dose: 200.0 mg/kg/injection, schedule: Q04DX003 (ip), vehicle: Klucel (hydroxypropylcellulose) (HPC) 86 % of control

COc1ccc2c(c1OC)-c1c3c(cc4c1C(C2)N(C)CC4)OCO3 (configuration not stated)
inactive: [1] 98 % of control | [2] 101 % of control | [3] 96 % of control

Nc1nc(SCc2ccccc2Cl)cc(C(=O)O)n1
inactive: dose: 50.0 mg/kg/injection, schedule: Q01DX Z (ip), vehicle: methylcellulose (MC) 102 % of control

CCCCCCC(C)NCCO (configuration not stated)
inactive: dose: 5.0 mg/kg/injection, schedule: Q01DX001 (ip), vehicle: saline 97 % of control | dose: 10.0 mg/kg/injection, schedule: Q01DX001 (ip), vehicle: saline 106 % of control | dose: 20.0 mg/kg/injection, schedule: Q01DX001 (ip), vehicle: saline 96 % of control | dose: 40.0 mg/kg/injection, schedule: Q01DX001 (ip), vehicle: saline 94 % of control | dose: 80.0 mg/kg/injection, schedule: Q01DX001 (ip), vehicle: saline 100 % of control

O=C(NCN1CCOCC1)Nc1ccc(Cl)cc1
inactive: dose: 25.0 mg/kg/injection, schedule: Q01DX009 (ip), vehicle: gum acacia 100 % of control | dose: 50.0 mg/kg/injection, schedule: Q01DX009 (ip), vehicle: gum acacia 91 % of control

COc1cc(/C=N\NC(=O)c2cccc(Cl)c2)ccc1N(CCCl)CCCl
inactive: [7] 100 % of control | [8] 103 % of control | [9] 105 % of control | [10] 103 % of control

O=c1[nH]cc(CCCO)c(=O)[nH]1
inactive: dose: 100.0 mg/kg/injection, schedule: Q01DX009 (ip), vehicle: saline 88 % of control | dose: 100.0 mg/kg/injection, schedule: Q04DX003 (ip), vehicle: saline 103 % of control | dose: 200.0 mg/kg/injection, schedule: Q01DX009 (ip), vehicle: saline 93 % of control | dose: 200.0 mg/kg/injection, schedule: Q04DX003 (ip), vehicle: saline 100 % of control | dose: 400.0 mg/kg/injection, schedule: Q01DX009 (ip), vehicle: saline 88 % of control | dose: 400.0 mg/kg/injection, schedule: Q04DX003 (ip), vehicle: saline 92 % of control

O=C(Nc1ccccc1[N+](=O)[O-])Oc1ccc(-c2ccccc2)cc1
inactive: dose: 100.0 mg/kg/injection, schedule: Q01DX009 (ip), vehicle: saline with Tween-80 93 % of control and 105 % of control | dose: 100.0 mg/kg/injection, schedule: Q04DX002 (ip), vehicle: saline with Tween-80 103 % of control and 117 % of control | [4] 98 % of control | dose: 200.0 mg/kg/injection, schedule: Q01DX009 (ip), vehicle: saline with Tween-80 101 % of control and 92 % of control | dose: 200.0 mg/kg/injection, schedule: Q04DX002 (ip), vehicle: saline with Tween-80 107 % of control and 91 % of control | [5] 95 % of control | dose: 400.0 mg/kg/injection, schedule: Q01DX009 (ip), vehicle: saline with Tween-80 101 % of control and 103 % of control | dose: 400.0 mg/kg/injection, schedule: Q04DX002 (ip), vehicle: saline with Tween-80 101 % of control and 91 % of control | [6] 101 % of control

Nc1ccc2c(c1)C(=O)c1c(F)ccc(F)c1-2
inactive: [7] 98 % of control | [8] 96 % of control | [9] 104 % of control | [10] 115 % of control
